How the values were obtained:
[1] = target: T1, hDAT (Homo sapiens, UniProt Q01959); assay: Transporter binding, [3H]WIN 35,428 binding at hDAT (HEK293 membranes)
T1 construct: expressed in transfected cells; host or cells: HEK293
Description: (§1) For membrane preparation, cells were harvested from 80 to 90% confluent dishes. HEK293 cells were washed with ice-cold phosphate-buffered saline (PBS), mechanically detached from the dish using a plastic scraper, and pelleted by centrifugation (400g for 10 min at 4 °C). The pellet was resuspended in HME buffer (20 mM HEPES NaOH, 1 mM EDTA, 2 mM MgCl2; pH 7.4), subjected to two freeze–thaw cycles in liquid nitrogen and homogenized through sonication at 4 °C. Membranes were then collected by centrifugation (40,000g for 30 min at 4 °C) and resuspended in an appropriate volume of HME buffer. The different membrane preparations aliquots were kept at −80 °C. Protein concentration was determined using the Bio-Rad Protein Reagent (Bio-Rad Laboratories, Hercules, CA).
(§2) Binding assays were performed as described.[6] […] This nonspecific binding also allows subtracting from the total binding values of the binding to other components such as membrane lipids or microfiber filters. Incubation was performed for 1 h at 22 °C. Binding reactions are stopped by rapid filtration of the membranes through GF/C glass microfiber filters presoaked with 0.5% polyethyleneimine and rapid washing with ice-cold wash buffer (120 mM NaCl, 2 mM MgCl2, 10 mM Tris, and 100 μM ZnCl2 for hDAT, and […], 2 mM MgCl2, and 10 mM Tris, for hSERT). Thereafter, the filters are placed into vials, a scintillation cocktail is added and trapped radioactivity is quantified by liquid scintillation counting. Specific binding of each drug to the transporter was defined as the difference between total binding (binding buffer in absence of the drug) and nonspecific binding. For each cathinone, four independent experiments carried out on duplicates were performed.
(§3) For in vitro assays, data were normalized with 100% defined as the mean of the technical replicates in the control group and expressed as mean ± SEM. Nonlinear regression was used to fit the different competition curves. Data were plotted and best fitted to a sigmoidal dose–response curve from which an IC50 or LC50 value was obtained. Transporter ratios were calculated as (1/DAT IC50: 1/SERT IC50). […] The Cheng–Prusoff equation was used to calculate Ki (affinity): Ki = EC50/(1 + [radioligand concentration/Kd]).[65] The sample size for behavioral experiments was determined using GPower software. One-way or two-way ANOVA, and subsequent Tukey’s posthoc test, conducted only if F was significant, was used to determine the effects of cathinones on cytotoxicity, HLA, OF, and CPP experiments. The α error probability was set at 0.05 (p < 0.05). The exact size group for the behavioral experiments is shown in the corresponding figure legends. All statistic calculations were carried out using GraphPad Prism (GraphPad software, San Diego, CA, USA).

[2] = target: T2, hSERT (Homo sapiens, UniProt P31645); assay: Monoamine uptake inhibition, [3H]5-HT uptake at hSERT in transfected HEK293 cells; assay type: cell-based
T2 construct: expressed in transfected cells; host or cells: HEK293
T2 sequence (P31645 whole entry): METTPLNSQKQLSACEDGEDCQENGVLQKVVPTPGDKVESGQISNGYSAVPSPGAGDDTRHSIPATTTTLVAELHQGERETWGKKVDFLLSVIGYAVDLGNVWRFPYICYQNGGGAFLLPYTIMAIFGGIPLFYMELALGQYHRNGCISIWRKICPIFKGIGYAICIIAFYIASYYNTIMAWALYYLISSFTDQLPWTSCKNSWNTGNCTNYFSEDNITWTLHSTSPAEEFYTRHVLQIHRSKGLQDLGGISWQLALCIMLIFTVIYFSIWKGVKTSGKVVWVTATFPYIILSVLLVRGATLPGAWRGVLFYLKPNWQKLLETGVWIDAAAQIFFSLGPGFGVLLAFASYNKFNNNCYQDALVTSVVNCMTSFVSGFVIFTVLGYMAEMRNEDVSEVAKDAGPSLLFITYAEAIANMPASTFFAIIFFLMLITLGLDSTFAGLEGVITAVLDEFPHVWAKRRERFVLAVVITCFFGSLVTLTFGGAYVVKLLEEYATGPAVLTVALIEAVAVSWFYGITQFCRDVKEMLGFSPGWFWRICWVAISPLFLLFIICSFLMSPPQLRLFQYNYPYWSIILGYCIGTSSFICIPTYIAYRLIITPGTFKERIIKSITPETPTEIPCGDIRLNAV
Description: (§4) Human embryonic kidney cells (HEK293) stably transfected with the human DAT and SERT were used for both the uptake inhibition and transporter binding assays.[6] Cells were cultured in DMEM supplemented with heat-inactivated 10% fetal bovine serum (FBS), […], and 100 U/mL penicillin at 37 °C in a 5% CO2 humidified atmosphere. Geneticin (G418; 50 μg/mL) was added to maintain the selection process. Upon approximately 80% confluence, cells were washed with 5 mL of phosphate-buffered saline (PBS) and 1 mL of trypsin/EDTA was added. After 3 min, 9 mL of DMEM was added to stop cell trypsinization. If necessary, centrifugation was performed to pellet the cells. Cells were then resuspended, counted, and seeded onto poly-D-lysine coated (24 h/prior to the experiment) 96-well plates at a density of 0.36 million cells per well for the uptake inhibition assays.
(§5) Assays were performed as previously described.[8] On the test day, the medium was removed from the cell culture 96-well plates and immediately replaced with 200 μL of Krebs-HEPES-buffer (KHB; 10 mM HEPES, 120 mM NaCl, 3 mM KCl, 2 mM CaCl2·2H2O, 2 mM MgCl2·6H2O supplemented with 20 mM D-glucose; pH 7.3). To ensure equilibrated conditions, cells were incubated with different concentrations of the drugs in KHB at a final volume of 50 μL/well for 5 min (preincubation). The preincubation solution was removed, and cells were incubated with the tritiated compounds, 0.02 μM [^3H]MPP^+ for hDAT and 0.1 μM [^3H]5-HT for hSERT, together with various concentrations of the test drugs in KHB. The uptake incubation times were 3 min for hDAT and 1 min for hSERT. The reaction was stopped by rapid removal of the incubation solution and washout with ice-cold KHB. Cells were lysed with 1% sodium dodecyl sulfate, and lysates were subsequently transferred to vials containing scintillation fluid. Radioactivity was quantified with a beta-scintillation counter (PerkinElmer, Waltham, MA, USA). The uptake in the absence of the test drugs was normalized to 100%, and the uptake in the presence of various concentrations of cathinones was expressed as a percentage thereof. […] Four independent experiments carried out on triplicates were performed.
as §3

[3] = target: T2, hSERT; assay: Transporter binding, [3H]imipramine binding at hSERT (HEK293 membranes)
Description: as §1, §2, §3

[4] = target: T1, hDAT; assay: Monoamine uptake inhibition, [3H]MPP+ uptake at hDAT in transfected HEK293 cells; assay type: cell-based; details: for hDAT/hSERT inhibition ratio: 1/DAT IC50:1/SERT IC50, calculated with the original raw data
Description: as §4, §5, §3

T1 sequence (Q01959 whole entry): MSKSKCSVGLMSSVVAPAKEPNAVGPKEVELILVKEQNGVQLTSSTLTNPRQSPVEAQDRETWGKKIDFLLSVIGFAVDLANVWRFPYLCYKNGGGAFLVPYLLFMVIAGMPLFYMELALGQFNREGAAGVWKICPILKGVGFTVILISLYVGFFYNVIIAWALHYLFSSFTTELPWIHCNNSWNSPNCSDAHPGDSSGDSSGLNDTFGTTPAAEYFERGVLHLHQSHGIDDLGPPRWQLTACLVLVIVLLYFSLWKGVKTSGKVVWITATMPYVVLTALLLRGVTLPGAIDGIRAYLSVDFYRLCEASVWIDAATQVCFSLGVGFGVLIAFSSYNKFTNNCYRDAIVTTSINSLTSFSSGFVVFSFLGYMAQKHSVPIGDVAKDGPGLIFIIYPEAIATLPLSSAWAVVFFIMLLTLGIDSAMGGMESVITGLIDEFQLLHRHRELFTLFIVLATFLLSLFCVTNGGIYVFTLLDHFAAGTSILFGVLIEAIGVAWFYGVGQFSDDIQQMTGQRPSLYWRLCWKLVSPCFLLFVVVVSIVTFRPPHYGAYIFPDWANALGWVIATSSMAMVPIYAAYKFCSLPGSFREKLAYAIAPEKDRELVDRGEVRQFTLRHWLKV

| SMILES | Ki [1] | IC50 [2] | Ki [3] | IC50 [4] | hDAT/hSERT inhibition ratio [4] | reduction of potency inhibiting DA uptake compared with α-PVP ([4]; vs α-PVP) | potency in inhibiting DA uptake compared with NEC ([4]; vs NEC) |
| --- | --- | --- | --- | --- | --- | --- | --- |
| CCNC(CC)C(=O)c1ccccc1 (stereo not drawn) [NEB, N-ethyl-buphedrone] | 198 nM | 51200 nM | 90100 nM | 305 nM | 168 |  |  |
| CCNC(C)C(=O)c1ccccc1 (stereo not drawn) [NEC, N-ethyl-cathinone] | 2330 nM | > 100000 nM | > 100000 nM | 1440 nM | 157 | ~10 fold |  |
| CCCCCC(NCC)C(=O)c1ccccc1 (stereo not drawn) [NEHP, N-ethyl-heptedrone] | 107 nM | > 100000 nM | 40600 nM | 251 nM | 426 |  |  |
| CCCCC(NCC)C(=O)c1ccccc1 (stereo not drawn) [NEH, N-ethyl-hexedrone] | 121 nM | > 100000 nM | 35900 nM | 73 nM | 1457 |  | ~20 fold |
| CCCC(NCC)C(=O)c1ccccc1 (stereo not drawn) [NEPD, N-ethyl-pentedrone] | 42 nM | 76400 nM | 24600 nM | 91 nM | 844 |  |  |
